In ChEMBL document CHEMBL3808310, “New anti-inflammatory sterols from a gorgonian Pinnigorgia sp” (2016) one finds Activity data, which are given here for three compounds.

The test system of test [1] is RAW264.7. The test is described as follows: Antiinflammatory activity in mouse RAW264.7 cells assessed as reduction in LPS-induced iNOS protein levels at 10 uM preincubated for 10 mins followed by LPS challenge for 16 hrs by Western blot analysis. Further details: scale not given: the % may be the effect or the level left. The class given is functional. In general terms: In western blotting, separated proteins are transferred to a membrane and probed.

For test [2], the system named is RAW264.7. The test is described as follows: Antiinflammatory activity in mouse RAW264.7 cells assessed as reduction in LPS-induced COX-2 protein levels at 10 uM preincubated for 10 mins followed by LPS challenge for 16 hrs by Western blot analysis. The class given is functional. Further details: scale not given: the % may be the effect or the level left.

Regarding `CC(=O)OCC[C@]1(C)[C@@H]([C@H](C)CC[C@H](C)C(C)C)CC[C@H]1C1=C[C@H](O)[C@@]2(O)C[C@@H](O)CC[C@]2(C)C1=O`, the Activity in test [1] is reported as 33.2%; in test [2], 54%.

As to `CC(C)[C@@H](C)/C=C/[C@@H](C)[C@H]1CC[C@H]2C3=C(CC[C@]12C)[C@@]1(C)CC[C@H](O)C[C@]12O[C@@H]2[C@@H]3O`, the Activity is reported as 41.1% in test [1] and 54% in test [2].

As for `C[C@@H]1C[C@H]2[C@@H]3CCC4=CC(=O)C=C[C@]4(C)[C@@]3(F)[C@@H](O)C[C@]2(C)[C@@]1(O)C(=O)CO` [DEXAMETHASONE], the Activity in test [1] worked out at 9.6%; in test [2] it was 1.7%.
